From patent publication US8658604B2, “Template-fixed beta-hairpin peptidomimetics with protease inhibitory activity” (Polyphor Ltd, priority 2005, dated 2014) come the findings set out here.

Where a SMILES comes first, the peptide text is derived from it.

Data set [1] deals with Thrombin, from Human Plasma (Homo sapiens, UniProt P00734).
For data set [2], the target named is T1, Chymase, from human skin (Homo sapiens, UniProt P23946).
T1 sequence (P23946 22-247): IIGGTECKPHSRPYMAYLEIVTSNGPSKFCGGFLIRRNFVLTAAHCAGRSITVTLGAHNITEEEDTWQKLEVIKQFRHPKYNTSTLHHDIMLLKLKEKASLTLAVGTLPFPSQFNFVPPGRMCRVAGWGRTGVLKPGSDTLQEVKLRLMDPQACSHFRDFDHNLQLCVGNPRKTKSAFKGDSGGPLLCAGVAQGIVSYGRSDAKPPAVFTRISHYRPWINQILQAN

The subject of data set [3] is HELA cells (Acc57). The experiment in a line: Cytotoxicity assay (MTT reduction), HELA cells. Format: cell-based. The settings on record: Hela cells. The essentials: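 HeLa cells were grown for 24 h, then exposed to peptides at 12.5, 25 and 50 μM in triplicate for 48 h at 37 °C. MTT reduction was read at 595 nm and growth % calculated relative to time-zero wells. LC50 interpolated by linear trend at −50% growth, GI50 at 50%.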
In general terms: Tetrazolium dyes change colour on reduction, which living cells bring about.

For data set [4], the system named is Tryptase, from human lung. Description: Enzymatic assay, tryptase. The note with it: at 100 μM.
The target of data set [5] is T2, Elastase from human neutrophils (Homo sapiens, UniProt P08246).
T2 sequence (P08246 30-267): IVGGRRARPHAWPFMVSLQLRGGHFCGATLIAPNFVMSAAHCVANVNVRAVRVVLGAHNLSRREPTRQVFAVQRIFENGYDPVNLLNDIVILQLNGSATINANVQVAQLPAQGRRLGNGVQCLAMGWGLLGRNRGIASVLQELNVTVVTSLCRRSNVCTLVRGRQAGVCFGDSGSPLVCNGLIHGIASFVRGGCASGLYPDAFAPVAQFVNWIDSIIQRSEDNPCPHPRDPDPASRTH
Description: Enzymatic assay, elastase. The note with it: Elastase IC50.

For data set [6], the target named is Urokinase from human urine (Homo sapiens, UniProt P00749).
The target in data set [7] is T3, CathepsinG, from human neutrophils (Homo sapiens, UniProt P08311).
T3 sequence (P08311 21-244): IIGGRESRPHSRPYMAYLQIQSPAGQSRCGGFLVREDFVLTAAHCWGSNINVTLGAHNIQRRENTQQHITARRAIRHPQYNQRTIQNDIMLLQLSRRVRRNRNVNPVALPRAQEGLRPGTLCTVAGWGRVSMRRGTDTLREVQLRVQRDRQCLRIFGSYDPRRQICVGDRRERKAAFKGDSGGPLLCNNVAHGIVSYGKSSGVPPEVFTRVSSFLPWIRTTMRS
The experiment in a line: Enzymatic assay, cathepsin G. The note with it: Cathepsin G IC50.

The target of data set [8] is Coagulation Factor Xa, from uman plasma (Homo sapiens, UniProt P00742).
Data set [9] deals with T4, Chymotrypsin, from human pancreas (Homo sapiens, UniProt P17538).
Data set [10] has as its target Trypsin, from human pancreas (Homo sapiens, UniProt P07477).
Data set [11] has as its target T4, Chymotrypsin, from human pancreas. The experiment in a line: Enzymatic assay, chymotrypsin.
Data set [12] has as its target T3, CathepsinG, from human neutrophils.
Data set [13] concerns human red blood cells (hRBC). The experiment in a line: Hemolysis.
Description: The peptides were tested for their hemolytic activity against human red blood cells (hRBC). Fresh hRBC were washed three times with phosphate buffered saline (PBS) by centrifugation for 10 min at 2000×g. Peptides at a concentration of 100 μM were incubated with 20% v/v hRBC for 1 hour at 37° C. The final erythrocyte concentration was approximately 0.9×10^9 cells per ml. A value of 0% and, respectively, 100% cell lysis was determined by incubation of the hRBC in the presence of PBS alone and, respectively, 0.1% Triton X-100 in H2O. […] The 100% lysis value (OD540H20) gave an OD540 of approximately 1.3-1.8. Percent hemolysis was calculated as follows: (OD540peptide/OD540H20)×100%.
The format of data set [14] is in vitro ADME. The note with it: 10 µM. On the procedure:
405 μl of plasma/albumin solution were placed in a polypropylene (PP) tube and spiked with 45 μl of compound from a […] solution B, derived from 135 μl of PBS and 15 μl of 1 mM peptide in PBS, pH 7.4. 150 μl aliquots were transferred into individual wells of the 10 kDa filter plate (Millipore MAPPB 1010 Biomax membrane). For “0 minutes controls”: 270 μl of PBS were placed in a PP tube and 30 μl of stock solution B was added and vortexed. 150 μl of control solution were placed into one well of the filter plate and served as “filtered control”.
Further 150 μl of control solution were placed directly into a receiver well (reserved for filtrate) and served as “not-filtered control”. The entire plate including evaporation lid was incubated for 60 min at 37° C. Plasma samples (rat plasma: Harlan Sera lab UK, human plasma: Blutspendezentrum Zürich) were centrifuged at least for 2 h at 4300 rpm (3500 g) and 15° C. in order to yield 100 filtrate. For “serum albumin”-samples (freshly prepared human albumin: Sigma A-4327, rat albumin: Sigma A-6272, all at 40 mg/ml concentration in PBS) approximately 1 hour of centrifugation was sufficient. The filtrates in the receiver PP plate were analysed by LC/MS as follower follows: Column: Jupiter C18 (Phenomenex), mobile phases: (A) 0.1% formic acid in water and (B) acetonitrile, gradient: 5%-100% (B) in 2 minutes, electrospray ionization, MRM detection (triple quadrupole). The peak areas were determined and triplicate values were averaged. The binding was expressed in percent of the (filtered and not-filtered time point 0 min) control 1 and 2 by: 100−(100×T60/T0). The average from these values was then calculated.

Sequence of Coagulation Factor Xa, from uman plasma (P00742 235-488 limits assumed): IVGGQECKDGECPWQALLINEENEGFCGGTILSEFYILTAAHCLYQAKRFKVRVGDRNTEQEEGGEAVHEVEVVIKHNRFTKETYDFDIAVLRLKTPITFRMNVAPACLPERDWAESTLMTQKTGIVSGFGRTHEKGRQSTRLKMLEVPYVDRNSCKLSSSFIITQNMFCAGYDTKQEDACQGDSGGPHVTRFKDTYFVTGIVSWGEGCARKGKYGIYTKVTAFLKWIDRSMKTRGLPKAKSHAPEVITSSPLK
Sequence of Coagulation Factor Xa, from uman plasma (P00742 41-179 limits assumed): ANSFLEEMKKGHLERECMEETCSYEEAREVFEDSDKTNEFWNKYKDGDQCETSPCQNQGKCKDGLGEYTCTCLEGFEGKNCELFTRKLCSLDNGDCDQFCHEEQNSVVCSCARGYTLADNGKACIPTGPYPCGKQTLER
T4 sequence (P17538 19-263): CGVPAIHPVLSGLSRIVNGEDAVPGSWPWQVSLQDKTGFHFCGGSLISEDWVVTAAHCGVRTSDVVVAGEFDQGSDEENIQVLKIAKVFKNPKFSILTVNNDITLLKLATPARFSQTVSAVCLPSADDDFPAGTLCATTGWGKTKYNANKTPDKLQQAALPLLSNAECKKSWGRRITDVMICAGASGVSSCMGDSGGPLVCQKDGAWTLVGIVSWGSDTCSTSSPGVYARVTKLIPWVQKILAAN

Broadly, the IC50 is the concentration at which inhibition is half-maximal. For the compound `CC[C@H](C)[C@@H]1NC(=O)[C@@H]2CCCN2C(=O)[C@@H]2CCCN2C(=O)[C@H](CC(=O)O)NC(=O)[C@H](CO)NC(=O)[C@H](CCCCN)NC(=O)[C@H]([C@@H](C)O)NC(=O)[C@@H]2CSSC[C@H](NC1=O)C(=O)N[C@@H](CCCNC(=N)N)C(=O)N1CCC[C@@H]1C(=O)N1CCC[C@H]1C(=O)N[C@@H](C1CCCCC1)C(=O)N2` [Ex. 12] (HELM PEPTIDE1{[O=C([C@@H](N[*:1])C1CCCCC1)[*:2]].C.T.K.S.D.P.P.I.C.R.[dP].P}$PEPTIDE1,PEPTIDE1,2:R3-10:R3|PEPTIDE1,PEPTIDE1,1:R1-13:R2$$$V2.0), the “Thrombin at 100 μM %” value in data set [1] is reported as 11%. In addition, the “Chymase at 100 μM %” value in data set [2] is recorded as 12%. The Cytotoxicity LC50/GI50 Hela cells in [3] was 59.3 µM. Also, in data set [4], the “Tryptase at 100 μM %” value was determined as 59.3%. Moreover, the IC50 came out at 37 µM in [5] and 0.09 µM in data set [7]. The “Urokinase at 100 μM %” value in data set [6] was 12%. In addition, the “FXa at 100 μM %” value in [8] is on record as 5%. Besides, the “Chymotrypsin at 100 μM %” value in [9] was 28%. Moreover, in data set [10], the “Trypsin at 100 μM %” value turned out to be 97%.
As to `CCCCCCCC[C@@H]1NC(=O)[C@H](CO)NC(=O)[C@H](C)NC(=O)[C@H]([C@@H](C)O)NC(=O)[C@@H]2CSSC[C@H](NC(=O)[C@H](CCC(N)=O)NC(=O)[C@@H]3CCCN3C(=O)[C@@H]3CCCN3C1=O)C(=O)N[C@@H](Cc1ccc(O)cc1)C(=O)N1CCC[C@@H]1C(=O)N1CCC[C@H]1C(=O)N[C@@H](CCCC)C(=O)N2` [Ex. 81] (HELM PEPTIDE1{[Nle].C.T.A.S.[CCCCCCCC[C@H](N[*:1])C(=O)[*:2]].P.P.Q.C.Y.[dP].P}$PEPTIDE1,PEPTIDE1,2:R3-10:R3|PEPTIDE1,PEPTIDE1,1:R1-13:R2$$$V2.0), the “Thrombin at 100 μM %” value in data set [1] is 13.1%. In data set [3], this compound had a Cytotoxicity LC50/GI50 Hela cells of 58 µM. The IC50 came to 0.028 µM in data set [5] and 100 µM in data set [11]. In addition, the “FXa at 100 μM %” value in [8] turned out to be 8.7%. Further, the “Cathepsin G at 100 μM %” value in data set [12] was 61.3 at 100%.
As for `CCCC[C@@H]1NC(=O)[C@@H]2CCCN2C(=O)[C@H]2CCCN2C(=O)[C@H](Cc2ccc(O)cc2)NC(=O)[C@H]([C@@H](C)O)NC(=O)[C@H](CCC(N)=O)NC(=O)[C@@H]2CCCN2C(=O)[C@@H]2CCCN2C(=O)[C@H]([C@@H](C)CC)NC(=O)[C@H](CO)NC(=O)[C@H](C)NC(=O)[C@H]([C@@H](C)O)NC(=O)[C@H](CCC(N)=O)NC1=O` [Ex. 109] (HELM PEPTIDE1{[Nle].Q.T.A.S.I.P.P.Q.T.Y.[dP].P}$PEPTIDE1,PEPTIDE1,1:R1-13:R2$$$V2.0), in data set [1], the “Thrombin at 100 μM %” value was 0%. The “Chymase at 100 μM %” value in [2] came to 0.1%. For the same compound, the IC50 was determined as 0.033 µM in data set [5] and 0.0138 µM in data set [11]. Also, in data set [8], the “FXa at 100 μM %” value was found to be 5.6%. In [10], the “Trypsin at 100 μM %” value is recorded as 0%. In [12], the “Cathepsin G at 100 μM %” value came out at 54.1 at 100%.
As to `CCCC[C@@H]1NC(=O)[C@H]([C@@H](C)O)NC(=O)[C@@H]2CSSC[C@H](NC(=O)[C@H]([C@@H](C)CC)NC(=O)[C@@H]3CCCN3C(=O)[C@@H]3CCCN3C(=O)[C@H](CC(=O)O)NC(=O)[C@H](CO)NC1=O)C(=O)N[C@@H](CCCNC(=N)N)C(=O)N1CCC[C@@H]1C(=O)N1CCC[C@H]1C(=O)N[C@@H]([C@@H](C)CC)C(=O)N2` [Ex. 22] (HELM PEPTIDE1{I.C.T.[Nle].S.D.P.P.I.C.R.[dP].P}$PEPTIDE1,PEPTIDE1,2:R3-10:R3|PEPTIDE1,PEPTIDE1,1:R1-13:R2$$$V2.0), the “Chymase at 100 μM %” value in data set [2] stood at 98.8%. Further, in data set [3], the Cytotoxicity LC50/GI50 Hela cells amounted to 8 µM. Besides, the “Tryptase at 100 μM %” value in [4] was 3.8%. Besides, the IC50 is greater than 100 µM in data set [5] and 0.055 µM in data set [7]. In [6], the “Urokinase at 100 μM %” value is recorded as 5.7%. The “Chymotrypsin at 100 μM %” value in data set [9] worked out at 0%. In addition, the “Trypsin at 100 μM %” value in [10] is on record as 84. %. In addition, the “Hemolysis at 100 μM %” value in data set [13] came out at 0%. For the same compound, the “Stability human Plasma t1/2” value in [14] stood at 5 h. Moreover, the “Stability rat Plasma t1/2” value in data set [14] worked out at 5 h.
